From patent US20230101743A1, “SUBSTITUTED TRIAZINE COMPOUNDS AND USES THEREOF” (MUSC FOUNDATION FOR RESEARCH DEVELOPMENT, priority 2020, published 2023)

Tests used:
Format in all cases: cell-based, human
APOA = assay: Secreted APOA ELISA in iPSC-derived hepatocytes; details: 2 μg/mL, 8 to 48 hours
Procedure: E. Human iPSC-derived hepatocytes were treated with 2 μg/mL of DL-1 from 8 to 48 hours. Albumin, APOPA, and APOB level in the culture medium were determined via ELISA. All secreted proteins were compared to non-treated cells. In FIG. 5, accumulated APOB in the medium from different time-point was measured and normalized to albumin level. In FIG. 6, APOA, APOB, and albumin in the medium at the indicated times were compared to control. […] Data are shown as mean±SEM of four replicates (n=4); *p<0.05, **p<0.01.
Human APOB level was determined via a commercial sandwich ELISA (3715-1H-6; Mabtech), and the signal was detected using the HRP-TMB system. The concentration of APOB was determined using a standard curve with four parameters logistic regression model. Human APOA level was determined via a commercial sandwich ELISA (3710-1H-6; Mabtech) following manufacture instruction. Human albumin levels in cell culture supernatants were measured by commercial ELISA (E88-129; Bethyl Laboratories) following manufactural instructions.

Hepatic neutral lipid = assay: Neutral lipid staining (BODIPY 493/503) in iPSC-derived hepatocytes; details: 72 hours; DL-1 2 μg/mL, CP-346086 20 nM
Procedure: H. Human iPSC derived hepatocytes were treated with DL-1 (2 μg/mL) and MTTP inhibitor CP-346086 (20 nM) for 72 hours. […] (A) Hepatic neutral lipid was determined by staining with 2 μM of BODIPYTM 493/503 for 15 mins and fixed with 4% PFA for microscopy. Nuclei were stained blue by DAPI. Scale bar=100 μm. […] Data are shown as mean±SEM of ten replicates (n=10); ***p<0.001.
K3 iPSC-derived hepatocytes (Day 20) were treated with or without 2 μg/mL of DL-1 or 20 nM of CP-346086 (Sigma) for 72 hours with daily medium change. At the time-point of interest, cells were treated with 2 μM of BODIPY® 493/503 staining solution (ThermoFisher) and 5 μg/mL of Hoechst 33342 (ThermoFisher) in PBS at 37 degrees for 15 minutes. Cells were washed with sterile PBS three times and then fixed with 4% PFA. Fluorescence images were taken using Bio-rad Zoeυ Fluorescent Cell Imager (Bio-Rad) and KEYENCE BZ-X800E Fluorescence Microscope (KEYENCE). Integrated fluorescent intensity was normalized by total cell counts, which is determined by DAPI staining.

[1] = system: total cholesterol levels within the medium; assay: Total cholesterol quantification in culture medium of iPSC-derived hepatocytes; details: 2 μg/mL, 24 hours; normalized with DMSO treated control
Procedure: B. Human iPSC-derived hepatocytes were treated with 2 μg/mL of DL-1 for 24 hours. Total cholesterol levels within the medium were determined and normalized with DMSO treated control. Data are shown as mean±SEM of six replicates (n=6); * ** P<0.001.
Cell Culture medium was harvested from human iPSC-derived hepatocytes (Day 20) before and after 24 hours of DL-1 (2 μg/mL) or vehicle treatment. Pre-drug and Post-drug medium were concentrated using Amico® Ultra 10K Centrifugal Filters (Sigma-Aldrich, #Z740171), and total cholesterol levels were determined using the colorimetric cholesterol assay kit (Sigma-Aldrich, #MAK043) following the manufactural instructions.

- hepatic lipid accumulation (neutral lipid level) (Hepatic neutral lipid): no impact on hepatic lipid accumulation
SMILES: Sc1nc(S)nc(Nc2ccc(Nc3ccccc3)cc2)n1 (racemic) [DL-1, 6-{[4-(phenylamino)phenyl]amino}-1,3,5-triazine-2,4-dithiol]
- APOA level in culture medium, time course (APOA): without affecting albumin and APOA level
- total cholesterol level in culture medium [1]: reduced total cholesterol level
